Literature values as cited in patent US9758545B2, “Sensor with a scaffold having changeable conformations” (UNIVERSITÉ DE FRIBOURG, priority 2010, dated 2017).

Settings: antibiotics integrated into implant cements

Q: For CN[C@H](CC(C)C)C(=O)N[C@H]1C(=O)N[C@@H](CC(N)=O)C(=O)N[C@H]2C(=O)N[C@H]3C(=O)NC(C(=O)N[C@@H](C(=O)O)c4cc(O)cc(O)c4-c4cc3ccc4O)[C@H](O)c3ccc(c(Cl)c3)Oc3cc2cc(c3O[C@@H]2OC(CO)[C@@H](O)C(O)C2O[C@H]2CC(C)(N)[C@H](O)C(C)O2)Oc2ccc(cc2Cl)[C@H]1O (stereo partly shown) [Vancomycin], which temperature sensitive above is on record?
A: The temperature sensitive above was “above 25 °C”.
